Test results from PubChem BioAssay AID210 (DTP/NCI, 2004).
Several values for one entry are separate records, joined by “and”; a condition that tells them apart may be missing. Equal entries are not always repeated. Toxic doses and inconclusive results are not listed.

Tested on: CD2F1 mice, ip Colon 26 adenocarcinoma, median survival T/C
Assay: NCI In Vivo Anticancer Drug Screen. Data for tumor model Colon 26 Adenocarcinoma (intraperitoneal) in CD2F1 (CDF1) mice
Conditions: endpoint: median survival time, higher = longer survival
Description: The antitumor activity of compounds was measured in mice bearing transplantable tumors. Survival or tumor size were measured and the results are expressed as the measurement made in the treated group (T) divided by the measurement made in the vehicle treated control group (C). The tumor model used in this assay is Colon 26 Adenocarcinoma (intraperitoneal) in CD2F1 (CDF1) mice

[1] = dose: 25.0 mg/kg/injection, schedule: Q04DX003 (ip), vehicle: Klucel (hydroxypropylcellulose) (HPC)
[2] = dose: 50.0 mg/kg/injection, schedule: Q04DX003 (ip), vehicle: Klucel (hydroxypropylcellulose) (HPC)
[3] = dose: 100.0 mg/kg/injection, schedule: Q04DX003 (ip), vehicle: Klucel (hydroxypropylcellulose) (HPC)

COC1C(O)C(C)OC(OC2C(Oc3cccc4c(O)c5c(=O)oc6ccc(C)c7c(=O)oc(c34)c5c67)OC(C)C(O)C2O)C1O (stereo not drawn)
T/C (dose: 12.5 mg/kg/injection, schedule: Q04DX002 (ip), vehicle: Klucel (hydroxypropylcellulose) (HPC)): 105 % of control and 112 % of control
T/C (dose: 12.5 mg/kg/injection, schedule: Q04DX003 (ip), vehicle: Klucel (hydroxypropylcellulose) (HPC)): 106 % of control
T/C (dose: 25.0 mg/kg/injection, schedule: Q04DX002 (ip), vehicle: Klucel (hydroxypropylcellulose) (HPC)): 107 % of control and 118 % of control
T/C [1]: 116 % of control
T/C (dose: 50.0 mg/kg/injection, schedule: Q04DX002 (ip), vehicle: Klucel (hydroxypropylcellulose) (HPC)): 106 % of control
T/C [2]: 106 % of control
T/C (dose: 100.0 mg/kg/injection, schedule: Q04DX002 (ip), vehicle: Klucel (hydroxypropylcellulose) (HPC)): 107 % of control and 100 % of control
T/C [3]: 110 % of control

O=C1c2c(O)ccc(O)c2C(=O)c2c(NCCNCCO)ccc(NCCNCCO)c21
T/C (dose: 0.19 mg/kg/injection, schedule: Q01DX009 (ip), vehicle: saline): 216 % of control and 277 % of control
T/C (dose: 0.25 mg/kg/injection, schedule: Q01DX009 (ip), vehicle: acid diluted with saline): 359 % of control
T/C (dose: 0.38 mg/kg/injection, schedule: Q01DX009 (ip), vehicle: saline): 289 % of control and 416 % of control
T/C (dose: 0.39 mg/kg/injection, schedule: Q01DX009 (ip), vehicle: acid diluted with saline): 259 % of control
T/C (dose: 0.39 mg/kg/injection, schedule: Q01DX009 (sc), vehicle: acid diluted with saline): 104 % of control
T/C (dose: 0.5 mg/kg/injection, schedule: Q01DX009 (ip), vehicle: acid diluted with saline): 365 % of control
T/C (dose: 0.65 mg/kg/injection, schedule: Q01DX009 (ip), vehicle: acid diluted with saline): 305 % of control
T/C (dose: 0.65 mg/kg/injection, schedule: Q01DX009 (sc), vehicle: acid diluted with saline): 104 % of control
T/C (dose: 0.75 mg/kg/injection, schedule: Q01DX009 (ip), vehicle: saline): 289 % of control and 416 % of control
T/C (dose: 1.0 mg/kg/injection, schedule: Q01DX009 (ip), vehicle: acid diluted with saline): 365 % of control
T/C (dose: 1.04 mg/kg/injection, schedule: Q04DX003 (ip), vehicle: acid diluted with saline): 386 % of control
T/C (dose: 1.04 mg/kg/injection, schedule: Q04DX003 (iv), vehicle: acid diluted with saline): 116 % of control
T/C (dose: 1.08 mg/kg/injection, schedule: Q01DX009 (ip), vehicle: acid diluted with saline): 353 % of control
T/C (dose: 1.08 mg/kg/injection, schedule: Q01DX009 (sc), vehicle: acid diluted with saline): 112 % of control
T/C (dose: 1.5 mg/kg/injection, schedule: Q01DX009 (ip), vehicle: saline): 109 % of control and 277 % of control
T/C (dose: 1.5 mg/kg/injection, schedule: Q07DX003 (iv), vehicle: acid diluted with saline): 100 % of control
T/C (dose: 1.73 mg/kg/injection, schedule: Q04DX003 (ip), vehicle: acid diluted with saline): 270 % of control
T/C (dose: 1.73 mg/kg/injection, schedule: Q04DX003 (iv), vehicle: acid diluted with saline): 120 % of control
T/C (dose: 1.8 mg/kg/injection, schedule: Q01DX009 (ip), vehicle: acid diluted with saline): 110 % of control
T/C (dose: 2.0 mg/kg/injection, schedule: Q01DX009 (ip), vehicle: acid diluted with saline): 365 % of control
T/C (dose: 2.88 mg/kg/injection, schedule: Q04DX003 (ip), vehicle: acid diluted with saline): 265 % of control
T/C (dose: 3.24 mg/kg/injection, schedule: Q01DX001 (ip), vehicle: acid diluted with saline): 209 % of control
T/C (dose: 3.24 mg/kg/injection, schedule: Q01DX001 (iv), vehicle: acid diluted with saline): 114 % of control
T/C (dose: 4.8 mg/kg/injection, schedule: Q04DX003 (ip), vehicle: acid diluted with saline): 197 % of control
T/C (dose: 5.4 mg/kg/injection, schedule: Q01DX001 (ip), vehicle: acid diluted with saline): 237 % of control
T/C (dose: 5.4 mg/kg/injection, schedule: Q01DX001 (iv), vehicle: acid diluted with saline): 110 % of control
T/C (dose: 6.0 mg/kg/injection, schedule: Q07DX003 (iv), vehicle: acid diluted with saline): 96 % of control
T/C (dose: 9.0 mg/kg/injection, schedule: Q01DX001 (ip), vehicle: acid diluted with saline): 123 % of control
T/C (dose: 9.0 mg/kg/injection, schedule: Q01DX001 (iv), vehicle: acid diluted with saline): 123 % of control

O=c1oc2cc(N=Cc3ccccc3Cl)ccc2c2ccccc12
T/C [2]: 100 % of control
T/C [3]: 97 % of control
T/C (dose: 200.0 mg/kg/injection, schedule: Q04DX003 (ip), vehicle: Klucel (hydroxypropylcellulose) (HPC)): 98 % of control
T/C (dose: 400.0 mg/kg/injection, schedule: Q04DX003 (ip), vehicle: Klucel (hydroxypropylcellulose) (HPC)): 98 % of control

COC(=O)C(F)C(Br)C(=O)OC (stereo not drawn)
T/C (dose: 6.25 mg/kg/injection, schedule: Q04DX003 (ip), vehicle: saline with Tween-80): 102 % of control
T/C (dose: 12.5 mg/kg/injection, schedule: Q04DX003 (ip), vehicle: saline with Tween-80): 102 % of control
T/C (dose: 25.0 mg/kg/injection, schedule: Q04DX003 (ip), vehicle: saline with Tween-80): 111 % of control
T/C (dose: 50.0 mg/kg/injection, schedule: Q04DX003 (ip), vehicle: saline with Tween-80): 114 % of control

Nc1ncnc2nc[nH]c12
T/C (dose: 64.0 mg/kg/injection, schedule: Q04DX002 (ip), vehicle: Klucel (hydroxypropylcellulose) (HPC)): 97 % of control
T/C (dose: 128.0 mg/kg/injection, schedule: Q04DX002 (ip), vehicle: Klucel (hydroxypropylcellulose) (HPC)): 91 % of control
T/C (dose: 256.0 mg/kg/injection, schedule: Q04DX002 (ip), vehicle: Klucel (hydroxypropylcellulose) (HPC)): 95 % of control
T/C (dose: 512.0 mg/kg/injection, schedule: Q04DX002 (ip), vehicle: Klucel (hydroxypropylcellulose) (HPC)): 94 % of control

CC(=O)Oc1ccccc1C(=O)O
T/C (dose: 72.0 mg/kg/injection, schedule: Q04DX002 (ip), vehicle: saline with Tween-80): 89 % of control

CCOC(=O)Nc1cc2c(c(N)n1)N=C(CN(C)c1ccccc1)CN2
T/C (dose: 6.25 mg/kg/injection, schedule: Q04DX003 (ip), vehicle: Klucel (hydroxypropylcellulose) (HPC)): 108 % of control
T/C [1]: 177 % of control
T/C [2]: 119 % of control

COc1ccc(CC2C(=O)NC(C)C(=O)N(C)C3C(=O)N(C)C(Cc4ccc(O)c(c4)Oc4ccc(cc4)C3O)C(=O)NC(C)C(=O)NC(C)C(=O)N2C)cc1 (stereo not drawn) (tested in a mixture with another compound)
T/C (dose: 0.5 mg/kg/injection, schedule: Q04DX003 (ip), vehicle: saline): 98 % of control
T/C (dose: 1.0 mg/kg/injection, schedule: Q04DX003 (ip), vehicle: saline): 98 % of control
T/C (dose: 2.0 mg/kg/injection, schedule: Q04DX003 (ip), vehicle: saline): 99 % of control

[N-]=[N+]=CC(=O)CCC(N)C(=O)O (stereo not drawn)
T/C (dose: 0.2 mg/kg/injection, schedule: Q04DX003 (ip), vehicle: saline): 102 % of control
T/C (dose: 0.39 mg/kg/injection, schedule: Q04DX003 (ip), vehicle: saline): 108 % of control
T/C (dose: 0.78 mg/kg/injection, schedule: Q04DX003 (ip), vehicle: saline): 108 % of control
T/C (dose: 1.56 mg/kg/injection, schedule: Q04DX003 (ip), vehicle: saline): 111 % of control
T/C (dose: 3.13 mg/kg/injection, schedule: Q04DX003 (ip), vehicle: saline): 120 % of control
T/C (dose: 6.25 mg/kg/injection, schedule: Q04DX003 (ip), vehicle: saline): 119 % of control

CCOC(=O)CNC(=O)CCCCSc1ncnc2nc[nH]c12
T/C (dose: 400.0 mg/kg/injection, schedule: Q04DX003 (ip), vehicle: saline with Tween-80): 104 % of control
T/C (dose: 800.0 mg/kg/injection, schedule: Q04DX003 (ip), vehicle: saline with Tween-80): 97 % of control
T/C (dose: 1600.0 mg/kg/injection, schedule: Q04DX003 (ip), vehicle: saline with Tween-80): 88 % of control

O=NN(CCCl)C(=O)NC1CCCCC1
T/C (dose: 10.0 mg/kg/injection, schedule: Q04DX003 (ip), vehicle: carboxymethylcellulose (CMC)): 121 % of control
T/C (dose: 40.0 mg/kg/injection, schedule: Q04DX003 (ip), vehicle: carboxymethylcellulose (CMC)): 196 % of control
T/C (dose: 80.0 mg/kg/injection, schedule: Q04DX003 (ip), vehicle: carboxymethylcellulose (CMC)): 159 % of control

C[C@]12CCC(=O)[C@@](C)(CO)[C@@H]1[C@H](O)C[C@H]1C[C@@H]3C[C@@]12CC[C@]3(O)CO
T/C (dose: 5.0 mg/kg/injection, schedule: Q04DX003 (ip), vehicle: saline with Tween-80): 98 % of control
T/C (dose: 10.0 mg/kg/injection, schedule: Q04DX003 (ip), vehicle: saline with Tween-80): 96 % of control
T/C (dose: 20.0 mg/kg/injection, schedule: Q04DX003 (ip), vehicle: saline with Tween-80): 90 % of control
T/C (dose: 40.0 mg/kg/injection, schedule: Q04DX003 (ip), vehicle: saline with Tween-80): 90 % of control
T/C (dose: 80.0 mg/kg/injection, schedule: Q04DX003 (ip), vehicle: saline with Tween-80): 100 % of control
